# Laboratory results published in US20230266302A1, “SYNTHESIS AND USE OF N-BENZYL SULFONAMIDES” (THE UNIVERSITY OF TULSA, priority 2020, published 2023).
# Test system: PC3 (prostate cancer)
# Assay: ATP level assay (CellTiter-Glo), percent of control
# Assay type: cell-based
# Conditions: 2 h; compound alone, 100 uM, two hour incubation, control DMSO; read-out: POC (percent of control) PC3
row,Compound,activity at 100 µM
1,"Cc1cccc2c(CNS(=O)(=O)c3ccccc3)c[nH]c12 [Compound 6, N-[(7-methyl-1H-indol-3-yl)methyl]benzenesulfonamide]",38.3%
2,"Cc1ccc(S(=O)(=O)NCc2c[nH]c3cccc(Br)c23)cc1 [Compound 5, N-[(4-bromo-1H-indol-3-yl)methyl]-4-methylbenzenesulfonamide]",68.3%
3,"O=S(=O)(NCc1c[nH]c2ccccc12)c1ccc(Cl)cc1 [Compound 2, N-[(1H-indol-3-yl)methyl]-4-chlorobenzenesulfonamide]",30.9%

# Same assay, conditions: compound 100 uM + 2DG (about 10-20 mM), two hour incubation
row,Compound,POC (percent of control) PC3
1,"Cc1cccc2c(CNS(=O)(=O)c3ccccc3)c[nH]c12 [Compound 6, N-[(7-methyl-1H-indol-3-yl)methyl]benzenesulfonamide]",35.9% of control
2,"Cc1ccc(S(=O)(=O)NCc2c[nH]c3cccc(Br)c23)cc1 [Compound 5, N-[(4-bromo-1H-indol-3-yl)methyl]-4-methylbenzenesulfonamide]",4.8% of control
3,"O=S(=O)(NCc1c[nH]c2ccccc12)c1ccc(Cl)cc1 [Compound 2, N-[(1H-indol-3-yl)methyl]-4-chlorobenzenesulfonamide]",16.7% of control

# Same assay, conditions: compound 100 uM + rotenone (approximately 1.25 μM), two hour incubation
row,Compound,POC (percent of control) PC3
1,"Cc1cccc2c(CNS(=O)(=O)c3ccccc3)c[nH]c12 [Compound 6, N-[(7-methyl-1H-indol-3-yl)methyl]benzenesulfonamide]",54.3% of control
2,"Cc1ccc(S(=O)(=O)NCc2c[nH]c3cccc(Br)c23)cc1 [Compound 5, N-[(4-bromo-1H-indol-3-yl)methyl]-4-methylbenzenesulfonamide]",18.3% of control
3,"O=S(=O)(NCc1c[nH]c2ccccc12)c1ccc(Cl)cc1 [Compound 2, N-[(1H-indol-3-yl)methyl]-4-chlorobenzenesulfonamide]",36.6% of control

# Test system: SkBr3 (breast cancer)
# Assay: as above
# Assay type: cell-based
# Conditions: Homo sapiens, SK-BR-3, 2 h; compound alone, 100 uM, two hour incubation, control DMSO; read-out: POC (percent of control) SkBr3
row,Compound,activity at 100 µM
1,"Cc1cccc2c(CNS(=O)(=O)c3ccccc3)c[nH]c12 [Compound 6, N-[(7-methyl-1H-indol-3-yl)methyl]benzenesulfonamide]",97%
2,"Cc1ccc(S(=O)(=O)NCc2c[nH]c3cccc(Br)c23)cc1 [Compound 5, N-[(4-bromo-1H-indol-3-yl)methyl]-4-methylbenzenesulfonamide]",71.1%
3,"O=S(=O)(NCc1c[nH]c2ccccc12)c1ccc(Cl)cc1 [Compound 2, N-[(1H-indol-3-yl)methyl]-4-chlorobenzenesulfonamide]",72.6%

# Same assay, conditions: compound 100 uM + 2DG (about 10-20 mM), two hour incubation
row,Compound,POC (percent of control) SkBr3
1,"Cc1cccc2c(CNS(=O)(=O)c3ccccc3)c[nH]c12 [Compound 6, N-[(7-methyl-1H-indol-3-yl)methyl]benzenesulfonamide]",55.9% of control
2,"Cc1ccc(S(=O)(=O)NCc2c[nH]c3cccc(Br)c23)cc1 [Compound 5, N-[(4-bromo-1H-indol-3-yl)methyl]-4-methylbenzenesulfonamide]",37.1% of control
3,"O=S(=O)(NCc1c[nH]c2ccccc12)c1ccc(Cl)cc1 [Compound 2, N-[(1H-indol-3-yl)methyl]-4-chlorobenzenesulfonamide]",38% of control

# Same assay, conditions: compound 100 uM + rotenone (approximately 1.25 μM), two hour incubation
row,Compound,POC (percent of control) SkBr3
1,"Cc1cccc2c(CNS(=O)(=O)c3ccccc3)c[nH]c12 [Compound 6, N-[(7-methyl-1H-indol-3-yl)methyl]benzenesulfonamide]",79.4% of control
2,"Cc1ccc(S(=O)(=O)NCc2c[nH]c3cccc(Br)c23)cc1 [Compound 5, N-[(4-bromo-1H-indol-3-yl)methyl]-4-methylbenzenesulfonamide]",60% of control
3,"O=S(=O)(NCc1c[nH]c2ccccc12)c1ccc(Cl)cc1 [Compound 2, N-[(1H-indol-3-yl)methyl]-4-chlorobenzenesulfonamide]",72.6% of control

# Test system: H293 (kidney cancer)
# Assay: Cytotoxicity testing, CellTiter-Blue assay (FIG. 9)
# Assay type: cell-based
# Conditions: 100 μM, 24 hour compound incubation, result in words
# Experimental: The cytotoxicity tests were carried out in the following manner. Living cells are known to convert resazurin to the fluorescent compound resorufin. Test systems which rely upon this reaction are commercially available. One such test is known at the Cell Titer Blue Cell Viability test assay from Promega. Cell cultures for each of the identified cancer lines were obtained from ATCC and maintained in Dulbecco's Modified Eagle Medium (DMEM) supplemented with 10% fetal bovine serum (FBS) and pen/strep. As known to those skilled in the art, DMEM typically includes the components identified below.
# The test method provides for incubating the cell cultures at 37° C. Additionally, the cell cultures are kept under an atmosphere containing 5% CO2. After allowing for proliferation of the cells, the cells were distributed across a plurality of test cells containing from 100 μL DMEM plus 10% FBS and allowed to attach to the surface of the cells. Typically, the time for attachment will require about 12 hours to about 18 hours. Following attachment, the cells were treated with either a solvent control or the N-benzyl sulfonamide compound of interest dissolved in a suitable solvent such as but not limited to DMSO. Typically, about 18 hours to about 36 hours are required to determine the effect of the N-benzyl sulfonamide compound of interest on cell viability. Following treatment of the cells with the N-benzyl sulfonamide or control, the toxicity of the compound to the cells will be determined by addition of 10 μl of CellTiter-Blue reagent, i.e. resazurin. Typically, the resazurin is added between about 18 hours to about 36 hours after treating the cells with the N-benzyl sulfonamides or the control. The cells are allowed to consume and convert the resazurin to resorufin for about one to four hours. Subsequently, the fluorescence of […] is measured by excitation at 560 nm and recording the emission at 590 nm within an instrument configured to measure fluorescence intensity. Two commercially available systems are the BioTek Cytation 5 plate reader and the Promega Glomax Multi+detection system. […] The method for determining IC50 values is well known in the art and will not be discussed further. As known to those skilled in the art, IC50 is a quantitative measure that indicates how much of a particular inhibitory substance (e.g. drug) is needed to inhibit, in vitro, a given biological process or biological component by 50%. Therefore, each N-benzyl sulfonamide will be tested over a range of concentrations. Typically, the concentration ranges will be: 6.25 μM, 12.5 μM, 25 μM, 50 μM, and 100 μM. The control in this method is normally dimethyl […] (DMSO) or other solvent suitable for dissolving the compounds to be tested. FIG. 8 depicts the % cell viability for the indicated compounds depicted in FIG. 7.
# The Table of FIG. 9 provides the results of cytotoxicity testing a 100 μM concentration of compounds 2, 5-9, 11-12, 14, 16, 18-22 of FIG. 7 against the indicated cancer cell lines using CellTiter-Blue assay with 24 hour compound incubation time. FIG. 9 reflects the percent reduction in cell viability resulting from the treatment of the indicated cancer cell lines with the indicated compounds. As indicated by the boxed values in FIG. 9, compounds 2, 5, and 6 would be considered effective against H293. […] The Table of FIG. 10 provides a comparison of the IC50 values of select compounds from FIG. 7 to the IC50 values of two known anti-cancer sulfonamides, ABT-751 and Indisulam. As indicated by FIG. 10, the identified compounds performed remarkably better than the known anti-cancer agents. Thus, the identified compounds are expected to have greater anti-cancer potency.
row,Compound,"percent reduction in cell viability, H293"
1,"Cc1cccc2c(CNS(=O)(=O)c3ccccc3)c[nH]c12 [Compound 6, N-[(7-methyl-1H-indol-3-yl)methyl]benzenesulfonamide]",effective
2,"Cc1ccc(S(=O)(=O)NCc2c[nH]c3cccc(Br)c23)cc1 [Compound 5, N-[(4-bromo-1H-indol-3-yl)methyl]-4-methylbenzenesulfonamide]",effective
3,"O=S(=O)(NCc1c[nH]c2ccccc12)c1ccc(Cl)cc1 [Compound 2, N-[(1H-indol-3-yl)methyl]-4-chlorobenzenesulfonamide]",effective
